According to patent publication US7928060B2, “Amylin family polypeptide-6 (AFP-6) analogs and methods of making and using them” (Amylin Pharmaceuticals, Inc., priority 2004, dated 2011):
Bridge positions count the residues as written; N and C are the ends. Ends that are not written are not given here. Peptide text beside a SMILES is read from it.

Key:
adrenomedullin receptor = adrenomedullin receptor (Homo sapiens, UniProt O60895+Q16602); experiment: adrenomedullin (ADM) receptor binding assay; details: Table 6
Sequence of adrenomedullin receptor (Q16602 23-461): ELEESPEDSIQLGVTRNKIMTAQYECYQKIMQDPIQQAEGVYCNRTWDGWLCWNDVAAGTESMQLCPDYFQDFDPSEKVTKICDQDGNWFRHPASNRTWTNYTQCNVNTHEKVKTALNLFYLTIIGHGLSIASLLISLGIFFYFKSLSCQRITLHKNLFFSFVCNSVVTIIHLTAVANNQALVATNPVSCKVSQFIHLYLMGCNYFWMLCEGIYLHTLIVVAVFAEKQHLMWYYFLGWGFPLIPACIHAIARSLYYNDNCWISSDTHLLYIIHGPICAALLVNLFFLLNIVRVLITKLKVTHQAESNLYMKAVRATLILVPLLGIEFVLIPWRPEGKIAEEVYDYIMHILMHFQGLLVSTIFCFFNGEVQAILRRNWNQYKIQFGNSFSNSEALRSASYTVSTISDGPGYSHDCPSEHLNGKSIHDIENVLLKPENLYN
Sequence of adrenomedullin receptor (O60895 43-175): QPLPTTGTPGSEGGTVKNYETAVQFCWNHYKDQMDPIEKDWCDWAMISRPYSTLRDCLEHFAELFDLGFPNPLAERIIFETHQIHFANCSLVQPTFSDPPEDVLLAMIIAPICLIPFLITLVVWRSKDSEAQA

calcitonin receptor = target: T1, calcitonin receptor (Rattus norvegicus, UniProt P32214); experiment: calcitonin receptor binding assay (rCalcitonin RBA); details: Table 6; read-out: CT receptor binding
T1 sequence (P32214 25-516): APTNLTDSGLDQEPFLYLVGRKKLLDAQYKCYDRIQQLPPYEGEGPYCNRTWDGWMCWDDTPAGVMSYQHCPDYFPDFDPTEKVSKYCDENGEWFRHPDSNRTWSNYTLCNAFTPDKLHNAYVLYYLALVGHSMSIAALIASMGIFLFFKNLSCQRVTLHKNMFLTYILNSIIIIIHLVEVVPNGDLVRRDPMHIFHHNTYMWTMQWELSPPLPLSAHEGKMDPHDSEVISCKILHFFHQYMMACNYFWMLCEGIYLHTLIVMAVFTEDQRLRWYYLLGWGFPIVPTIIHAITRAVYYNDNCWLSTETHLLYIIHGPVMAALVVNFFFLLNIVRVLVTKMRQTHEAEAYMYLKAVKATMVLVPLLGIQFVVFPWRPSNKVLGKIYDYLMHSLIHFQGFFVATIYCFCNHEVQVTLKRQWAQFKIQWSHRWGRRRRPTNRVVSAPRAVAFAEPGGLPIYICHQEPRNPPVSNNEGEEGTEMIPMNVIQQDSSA

| Compound | IC50 (adrenomedullin receptor) | IC50 (calcitonin receptor) |
| --- | --- | --- |
| CC(C)C[C@H](NC(=O)[C@H](CCC(N)=O)NC(=O)[C@H](C)NC(=O)[C@H](CCC(N)=O)NC(=O)[C@@H](N)[C@@H](C)O)C(=O)N[C@@H](CC(C)C)C(=O)N[C@@H](CCCNC(=N)N)C(=O)N[C@H](C(=O)NCC(=O)N[C@H]1CSSC[C@@H](C(=O)N[C@@H](CCC(N)=O)C(=O)N[C@H](C(=O)N[C@@H](CCC(N)=O)C(=O)N[C@@H](CC(N)=O)C(=O)N[C@@H](CC(C)C)C(=O)N[C@@H](CO)C(=O)N[C@@H](Cc2c[nH]cn2)C(=O)N[C@@H](CCCNC(=N)N)C(=O)N[C@@H](CC(C)C)C(=O)N[C@@H](Cc2c[nH]c3ccccc23)C(=O)N[C@@H](CCC(N)=O)C(=O)N[C@@H](CC(C)C)C(=O)N[C@@H](CC(=O)O)C(=O)N[C@@H](CO)C(=O)N[C@@H](C)C(=O)N2CCC[C@H]2C(=O)N[C@H](C(=O)N[C@@H](CC(=O)O)C(=O)N2CCC[C@H]2C(=O)N[C@@H](CO)C(=O)N[C@@H](CO)C(=O)N2CCC[C@H]2C(=O)N[C@@H](Cc2c[nH]cn2)C(=O)N[C@@H](CO)C(=O)N[C@@H](Cc2ccc(O)cc2)C(N)=O)C(C)C)C(C)C)NC(=O)[C@H]([C@@H](C)O)NC(=O)CNC(=O)[C@H](CC(C)C)NC(=O)[C@H](C(C)C)NC1=O)C(C)C [compound 17] (H-TQAQLLRVGCVLGTCQVQNLSHRLWQLDSAPVDPSSPHSY-NH2; disulfide 10-15 (inferred); N-terminus assumed) | 304 nM | > 1000 nM |
| CSCC[C@H](NC(=O)[C@H](CC(C)C)NC(=O)[C@H](CCC(N)=O)NC(=O)[C@H](Cc1c[nH]c2ccccc12)NC(=O)[C@H](CC(C)C)NC(=O)[C@H](CCCNC(=N)N)NC(=O)[C@H](Cc1c[nH]cn1)NC(=O)[C@H](CO)NC(=O)[C@H](CC(C)C)NC(=O)[C@H](CC(N)=O)NC(=O)[C@H](CCC(N)=O)NC(=O)[C@@H](NC(=O)[C@H](CCC(N)=O)NC(=O)[C@@H]1CSSC[C@H](NC(=O)CN)C(=O)N[C@@H](C(C)C)C(=O)N[C@@H](CC(C)C)C(=O)NCC(=O)N[C@@H]([C@@H](C)O)C(=O)N1)C(C)C)C(=O)NCC(=O)N1CCC[C@H]1C(=O)N[C@@H](C)C(=O)NCC(=O)N[C@@H](CCCNC(=N)N)C(=O)N[C@@H](CCC(N)=O)C(=O)N[C@@H](CC(=O)O)C(=O)N[C@@H](CO)C(=O)N[C@@H](C)C(=O)N1CCC[C@H]1C(=O)N[C@H](C(=O)N[C@@H](CC(=O)O)C(=O)N1CCC[C@H]1C(=O)N[C@@H](CO)C(=O)N[C@@H](CO)C(=O)N1CCC[C@H]1C(=O)N[C@@H](Cc1c[nH]cn1)C(=O)N[C@@H](CO)C(=O)N[C@@H](Cc1ccc(O)cc1)C(N)=O)C(C)C [compound 11] (H-GCVLGTCQVQNLSHRLWQLMGPAGRQDSAPVDPSSPHSY-NH2; disulfide 2-7 (inferred); N-terminus assumed) | 11 nM | 27 nM |
| CC(C)C[C@H](NC(=O)[C@H](CCC(N)=O)NC(=O)[C@H](Cc1c[nH]c2ccccc12)NC(=O)[C@H](CC(C)C)NC(=O)[C@H](CCCNC(=N)N)NC(=O)[C@H](Cc1c[nH]cn1)NC(=O)[C@H](CO)NC(=O)[C@H](CC(C)C)NC(=O)[C@H](CC(N)=O)NC(=O)[C@H](CCC(N)=O)NC(=O)[C@@H](NC(=O)[C@H](CCC(N)=O)NC(=O)[C@@H]1CSSC[C@H](NC(=O)CNC(=O)[C@@H](N)C(C)C)C(=O)N[C@@H](C(C)C)C(=O)N[C@@H](CC(C)C)C(=O)NCC(=O)N[C@@H]([C@@H](C)O)C(=O)N1)C(C)C)C(=O)N[C@@H](CCCNC(=N)N)C(=O)N[C@@H](CCC(N)=O)C(=O)N[C@@H](CC(=O)O)C(=O)N[C@@H](CO)C(=O)N[C@@H](C)C(=O)N1CCC[C@H]1C(=O)N[C@H](C(=O)N[C@@H](CC(=O)O)C(=O)N1CCC[C@H]1C(=O)N[C@@H](CO)C(=O)N[C@@H](CO)C(=O)N1CCC[C@H]1C(=O)N[C@@H](Cc1c[nH]cn1)C(=O)N[C@@H](CO)C(=O)N[C@@H](Cc1ccc(O)cc1)C(N)=O)C(C)C [compound 18] (H-VGCVLGTCQVQNLSHRLWQLRQDSAPVDPSSPHSY-NH2; disulfide 3-8 (inferred); N-terminus assumed) | ≥ 1000 nM | 24 nM |
| TQAQLLRVGCVLGTCQVQNLSHRLWQLRQDSAPVDPSSPHSY-NH2 (disulfide 10-15 (inferred)) [compound 16] | ≥ 1000 nM | 22 nM |
| CC(C)C[C@H](NC(=O)[C@H](CCC(N)=O)NC(=O)[C@H](Cc1c[nH]c2ccccc12)NC(=O)[C@H](CC(C)C)NC(=O)[C@H](CCCNC(=N)N)NC(=O)[C@H](Cc1c[nH]cn1)NC(=O)[C@H](CO)NC(=O)[C@H](CC(C)C)NC(=O)[C@H](CC(N)=O)NC(=O)[C@H](CCC(N)=O)NC(=O)[C@@H](NC(=O)[C@H](CCC(N)=O)NC(=O)[C@@H]1CSSC[C@H](N)C(=O)N[C@@H](C(C)C)C(=O)N[C@@H](CC(C)C)C(=O)NCC(=O)N[C@@H]([C@@H](C)O)C(=O)N1)C(C)C)C(=O)N[C@@H](CCCNC(=N)N)C(=O)N[C@@H](CCC(N)=O)C(=O)N[C@@H](CCC(=O)O)C(=O)N[C@@H](CO)C(=O)N[C@@H](C)C(=O)N1CCC[C@H]1C(=O)N[C@H](C(=O)N[C@@H](CCC(=O)O)C(=O)N1CCC[C@H]1C(=O)N[C@@H](CO)C(=O)N[C@@H](CO)C(=O)N1CCC[C@H]1C(=O)N[C@@H](Cc1c[nH]cn1)C(=O)N[C@@H](CO)C(=O)N[C@@H](Cc1ccc(O)cc1)C(N)=O)C(C)C [compound 19] (H-CVLGTCQVQNLSHRLWQLRQESAPVEPSSPHSY-NH2; disulfide 1-6 (inferred); N-terminus assumed) | ≥ 1000 nM | 247 nM |
| CSCC[C@H](NC(=O)[C@H](CC(C)C)NC(=O)[C@H](CCC(N)=O)NC(=O)[C@H](Cc1c[nH]c2ccccc12)NC(=O)[C@H](CC(C)C)NC(=O)[C@H](CCCNC(=N)N)NC(=O)[C@H](Cc1c[nH]cn1)NC(=O)[C@H](CO)NC(=O)[C@H](CC(C)C)NC(=O)[C@H](CC(N)=O)NC(=O)[C@H](CCC(N)=O)NC(=O)[C@@H](NC(=O)[C@H](CCC(N)=O)NC(=O)[C@@H]1CSSC[C@H](N)C(=O)N[C@@H](C(C)C)C(=O)N[C@@H](CC(C)C)C(=O)NCC(=O)N[C@@H]([C@@H](C)O)C(=O)N1)C(C)C)C(=O)NCC(=O)N1CCC[C@H]1C(=O)N[C@@H](C)C(=O)NCC(=O)N[C@@H](CCCNC(=N)N)C(=O)N[C@@H](CCC(N)=O)C(=O)N[C@@H](CC(=O)O)C(=O)N[C@@H](CO)C(=O)N[C@@H](C)C(=O)N1CCC[C@H]1C(=O)N[C@H](C(=O)N[C@@H](CC(=O)O)C(=O)N1CCC[C@H]1C(=O)N[C@@H](CO)C(=O)N[C@@H](CO)C(=O)N1CCC[C@H]1C(=O)N[C@@H](Cc1c[nH]cn1)C(=O)N[C@@H](CO)C(=O)N[C@@H](Cc1ccc(O)cc1)C(N)=O)C(C)C [compound 12] (H-CVLGTCQVQNLSHRLWQLMGPAGRQDSAPVDPSSPHSY-NH2; disulfide 1-6 (inferred); N-terminus assumed) | 18 nM | 198 nM |

Further lines, results first:

| IC50 (adrenomedullin receptor) | IC50 (calcitonin receptor) | Compound |
| --- | --- | --- |
| ≥ 1000 nM | 9 nM | CC(C)C[C@@H]1NC(=O)[C@H](CC(N)=O)NC(=O)CNC(=O)[C@@H](NC(=O)CNC(=O)[C@@H](N)C(C)C)CSSC[C@@H](C(=O)N[C@@H](CCC(N)=O)C(=O)N[C@H](C(=O)N[C@@H](CCC(N)=O)C(=O)N[C@@H](CC(N)=O)C(=O)N[C@@H](CC(C)C)C(=O)N[C@@H](CO)C(=O)N[C@@H](Cc2c[nH]cn2)C(=O)N[C@@H](CCCNC(=N)N)C(=O)N[C@@H](CC(C)C)C(=O)N[C@@H](Cc2c[nH]c3ccccc23)C(=O)N[C@@H](CCC(N)=O)C(=O)N[C@@H](CC(C)C)C(=O)N[C@@H](CCCNC(=N)N)C(=O)N[C@@H](CCC(N)=O)C(=O)N[C@@H](CC(=O)O)C(=O)N[C@@H](CO)C(=O)N[C@@H](C)C(=O)N2CCC[C@H]2C(=O)N[C@H](C(=O)N[C@@H](CC(=O)O)C(=O)N2CCC[C@H]2C(=O)N[C@@H](CO)C(=O)N[C@@H](CO)C(=O)N2CCC[C@H]2C(=O)N[C@@H](Cc2c[nH]cn2)C(=O)N[C@@H](CO)C(=O)N[C@@H](Cc2ccc(O)cc2)C(N)=O)C(C)C)C(C)C)NC(=O)[C@H]([C@@H](C)O)NC(=O)[C@H](CO)NC1=O [compound 29] (H-VGCGNLSTCQVQNLSHRLWQLRQDSAPVDPSSPHSY-NH2; disulfide 3-9 (inferred)) |
| 37 nM | > 1000 nM | H-GMVLGTMQVQNLSHRLWQLMGPAGRQDSAPVDPSSPHSY-NH2 [compound 26] |
| 120 nM | > 1000 nM | H-TQAQLLRVGMVLGTMQVQNLSHRLWQLMGPAGRQDSAPVDPSSPHSY-NH2 [compound 25] |
| 36 nM | 16 nM | H-TQAQLLRVGCSNLSTCQVQNLSHRLWQLMGPAGRQDSAPVDPSSPHSY-NH2 (disulfide 10-16 (inferred)) [compound 20] |
| – | 17 nM | CC(C)C[C@H](NC(=O)[C@H](CCC(N)=O)NC(=O)[C@H](Cc1c[nH]c2ccccc12)NC(=O)[C@H](CC(C)C)NC(=O)[C@H](CCCNC(=N)N)NC(=O)[C@H](Cc1c[nH]cn1)NC(=O)[C@H](CO)NC(=O)[C@H](CC(C)C)NC(=O)[C@H](CC(N)=O)NC(=O)[C@H](CCC(N)=O)NC(=O)[C@@H](NC(=O)[C@H](CCC(N)=O)NC(=O)[C@@H]1CSSC[C@H](NC(=O)CN)C(=O)N[C@@H](CO)C(=O)N[C@@H](CC(N)=O)C(=O)N[C@@H](CC(C)C)C(=O)N[C@@H](CO)C(=O)N[C@@H]([C@@H](C)O)C(=O)N1)C(C)C)C(=O)N[C@@H](CCCNC(=N)N)C(=O)N[C@@H](CCC(N)=O)C(=O)N[C@@H](CC(=O)O)C(=O)N[C@@H](CO)C(=O)N[C@@H](C)C(=O)N1CCC[C@H]1C(=O)N[C@H](C(=O)N[C@@H](CCC(=O)O)C(=O)N1CCC[C@H]1C(=O)N[C@@H](CO)C(=O)N[C@@H](CO)C(=O)N1CCC[C@H]1C(=O)N[C@@H](Cc1c[nH]cn1)C(=O)N[C@@H](CO)C(=O)N[C@@H](Cc1ccc(O)cc1)C(N)=O)C(C)C [compound 38] (H-GCSNLSTCQVQNLSHRLWQLRQDSAPVEPSSPHSY-NH2; disulfide 2-8 (inferred); N-terminus assumed) |
